Results on 12 compounds are retold here after ChEMBL document CHEMBL1649172, “Novel imino sugar derivatives demonstrate potent antiviral activity against flaviviruses” (Antimicrob Agents Chemother, 2009).

In series [1] the test system is Dengue virus. As to the kind of experiment: Antiviral activity against Dengue virus. Format: functional, organism-based.
The subject of series [2] is Bovine viral diarrhea virus 1. As to the kind of experiment: Antiviral activity against Bovine viral diarrhea virus 1. Format: functional, organism-based. To be noted: Bovine viral diarrhea virus isolates and strains.
The nature of series [3]: Antiviral activity against 1 MOI Bovine viral diarrhea virus NADL infected in MDBK cells assessed as reduction in viral titer after 72 hrs by plaque forming assay. Format: functional, cell-based, Bovine viral diarrhea virus 1-NADL. The following applies: Bovine viral diarrhea virus isolates and strains.
Series [4] in a line: Selectivity index, ratio of CC50 for bovine MDBK cells to EC50 for 1 MOI Bovine viral diarrhea virus infected in bovine MDBK cells. Format: toxicity, cell-based. To be noted: cattle; read-out: Ratio CC50/EC50.
A short description of series [5]: Cytotoxicity against MDBK cells by MTT assay. Format: cell-based, Bos taurus. To be noted: cattle.
For series [6], the system named is Dengue virus. As to the kind of experiment: Antiviral activity against Dengue virus C infected in african green monkey Vero cells assessed as reduction in viral titer after 72 hrs by plaque reduction assay. It counts as functional, organism-based.
Another series concerns West Nile virus. In words: Antiviral activity against West Nile virus infected in baby hamster kidney cells assessed as reduction in viral titer after 72 hrs by plaque reduction assay. It counts as functional, organism-based. On the technique in general: Plaque reduction counts the foci of infection that form in a cell layer.
Series [7] can be described thus: Cytotoxicity against BHK cells by MTT assay. Format: cell-based, Mesocricetus auratus. The following applies: hamster.
Series [8] is described as follows: Cytotoxicity against african green monkey Vero cells by MTT assay. Format: cell-based. The following applies: chlorocebus sabaeus.
For series [9], the system named is MDBK. As to the kind of experiment: Antiviral activity against 1 MOI Bovine viral diarrhea virus NADL infected in bovine MDBK cells assessed as inhibition of viral RNA replication at 100 uM after 6 hrs by RT-PCR. It counts as functional, cell-based. The following applies: Bovine viral diarrhea virus 1-NADL.
The subject of series [10] is MDBK. As to the kind of experiment: Antiviral activity against 1 MOI Bovine viral diarrhea virus NADL infected in bovine MDBK cells assessed as inhibition of viral RNA replication at 80 uM after 6 hrs by RT-PCR. It counts as functional, cell-based. The following applies: Bovine viral diarrhea virus 1-NADL.
Series [11] can be described thus: Antiviral activity against 1 MOI Bovine viral diarrhea virus NADL infected in bovine MDBK cells assessed as inhibition of extracellular viral RNA production at 100 uM after 24 hrs by RT-PCR. Format: functional, Bovine viral diarrhea virus 1-NADL. To be noted: Bovine viral diarrhea virus isolates and strains.
The nature of series [12]: (§1) Antiviral activity against 1 MOI Bovine viral diarrhea virus NADL infected in bovine MDBK cells assessed as inhibition of viral RNA replication at 80 uM after 24 hrs by RT-PCR. To be noted: Bovine viral diarrhea virus isolates and strains. Format: functional, Bovine viral diarrhea virus 1-NADL.
In series [13] the test system is MDBK. As to the kind of experiment: Antiviral activity against 1 MOI Bovine viral diarrhea virus NADL infected in bovine MDBK cells assessed as inhibition of viral RNA replication at 100 uM after 12 hrs by RT-PCR. It counts as functional, cell-based. The following applies: Bovine viral diarrhea virus 1-NADL.
The subject of series [14] is MDBK. In words: Antiviral activity against 1 MOI Bovine viral diarrhea virus NADL infected in bovine MDBK cells assessed as inhibition of viral RNA replication at 80 uM after 12 hrs by RT-PCR. Format: functional, cell-based. The following applies: Bovine viral diarrhea virus 1-NADL.
Series [15] can be described thus: Antiviral activity against 1 MOI Bovine viral diarrhea virus NADL infected in bovine MDBK cells assessed as inhibition of extracellular viral RNA production at 80 uM after 24 hrs by RT-PCR. It counts as functional, Bovine viral diarrhea virus 1-NADL. The following applies: Bovine viral diarrhea virus isolates and strains.
The nature of series [16]: Antiviral activity against 1 MOI Bovine viral diarrhea virus NADL infected in bovine MDBK cells assessed as reduction in viral titer at 80 uM after 24 hrs by RT-PCR. To be noted: Bovine viral diarrhea virus isolates and strains. It counts as functional, Bovine viral diarrhea virus 1-NADL.
Series [17] in a line: Antiviral activity against 1 MOI Bovine viral diarrhea virus NADL infected in bovine MDBK cells assessed as inhibition of viral RNA replication at 100 uM after 24 hrs by RT-PCR. Format: functional, Bovine viral diarrhea virus 1-NADL. The following applies: Bovine viral diarrhea virus isolates and strains.
Series [18] in a line: Antiviral activity against 1 MOI Bovine viral diarrhea virus NADL infected in bovine MDBK cells assessed as inhibition of intracellular viral RNA production at 100 uM after 24 hrs by RT-PCR. Format: functional, Bovine viral diarrhea virus 1-NADL. The following applies: Bovine viral diarrhea virus isolates and strains.
Series [19] in a line: Antiviral activity against 1 MOI Bovine viral diarrhea virus NADL infected in bovine MDBK cells assessed as inhibition of intracellular viral RNA production at 80 uM after 24 hrs by RT-PCR. The following applies: Bovine viral diarrhea virus isolates and strains. Format: functional, Bovine viral diarrhea virus 1-NADL.
The subject of series [20] is Bovine viral diarrhea virus 1-NADL. In words: Inhibition of […] assessed as reduced E2 protein mobility after 24 hrs by Western blotting. (In western blotting, separated proteins are transferred to a membrane and probed.)
Series [21] can be described thus: Antiviral activity against 1 MOI Bovine viral diarrhea virus NADL infected in bovine MDBK cells assessed as reduction in viral titer at 100 uM after 24 hrs by RT-PCR. To be noted: Bovine viral diarrhea virus isolates and strains. Format: functional, Bovine viral diarrhea virus 1-NADL.
Series [22] has as its system MDBK. The series is described as §1. It counts as functional. To be noted: Bovine viral diarrhea virus 1-NADL.

By EC50 is commonly meant the midpoint of the concentration-response curve. The EC90 is the concentration needed for an effect of 90%. In general, CC50 refers to the concentration at which the toxic effect on the cells reaches its halfway point. For orientation: inhibition means the percentage by which the read-out fell short of the control.

Calls of active or inactive are those of the source. The rule behind the calls is not given here.

On to `CCCCN1C[C@H](O)[C@@H](O)[C@H](O)[C@H]1CO` [MIGLUSTAT], for which the EC50 (in the series with Dengue virus [1]; in [2]) was 100 µM throughout.
Take `CCCC(O)(CCC)CCCCCN1C[C@H](O)[C@@H](O)[C@H](O)[C@H]1CO`: in series [3], the EC50 stood at 9.5 µM and the EC90 is greater than 100 µM. In addition, the selectivity ratio in series [4] was greater than 53. Further, the CC50 in [5] was greater than 500 µM.
As to `Cc1ccc(C)c(OCCCCCCN2C[C@H](O)[C@@H](O)[C@H](O)[C@H]2CO)c1`, the values for the EC50 (in the series on Dengue virus [6]; in [3]; with West Nile virus) were 0.1 µM, 3 µM and 1.5 µM, respectively. Further, the EC90 in the series on Dengue virus [6] is 0.6 µM; in series [3], 24.9 µM; in the series on West Nile virus it was 20 µM. In addition, in series [4], the selectivity ratio was 162. For the same compound, the CC50 was 75 µM in [7], 85 µM in series [8] and 485 µM in series [5].
As for `OC[C@@H]1[C@@H](O)[C@H](O)[C@@H](O)CN1CCCCCC1(O)CCCCC1`, the inhibition entry with MDBK [9], in the series with MDBK [10], in the series with MDBK [13] and with MDBK [14] was “inactive” in each case. Moreover, the EC50 in the series with Dengue virus [6] amounted to 4 µM; in [3], 10.5 µM; in the series on West Nile virus it was 4.5 µM. For the same compound, the results for the EC90 (in the series with Dengue virus [6]; in [3]) were 8.7 µM and greater than 100 µM, respectively. The inhibition at 100 µM in series [11] came out at 73%; in [17] it was 40%; in [18], 40%; in series [21], 89%. The inhibition at 80 µM in series [12] was 40%; in [15], 73%; in series [16], 89%; in series [19], 40%. In addition, the selectivity ratio in [4] was greater than 48. Further, the CC50 was greater than 100 µM in series [7], greater than 40 µM in series [8] and greater than 500 µM in series [5]. In addition, in series [20], the inhibition result was “Dose-dependent effect”.
Consider `CCCCCCCCCN1C[C@H](O)[C@@H](O)[C@H](O)[C@H]1CO`, for which the EC50 is 1.1 µM with Dengue virus [6], 7.3 µM in [3] and 4 µM in the series with West Nile virus. In addition, the EC90 in the series on Dengue virus [6] worked out at 3.3 µM; in [3], 71 µM. Besides, in [4], the selectivity ratio worked out at 33. The CC50 in series [7] is 20 µM; in series [8], greater than 40 µM; in series [5], 245 µM.
Turning to `OC[C@@H]1[C@@H](O)[C@H](O)[C@@H](O)CN1CCCCCOCC1CC2CCC1C2` (stereo partly specified), in series [3], the EC50 is 2.9 µM and the EC90 is 22 µM. Moreover, the selectivity ratio in series [4] was greater than 172. The compound further registered a CC50 in [5] greater than 500 µM.
Take `OC[C@@H]1[C@@H](O)[C@H](O)[C@@H](O)CN1CCCCCCOC1CC2CCC1C2` (stereo partly specified): in series [3], the 50% effective concentration (EC50) was found to be 4.5 µM and the EC90 was determined as 47 µM. In addition, the selectivity ratio in [4] is greater than 111. In series [5], this compound showed a CC50 greater than 500 µM.
On to `C[C@@H]1CCCCC1OCCCCCCN1C[C@H](O)[C@@H](O)[C@H](O)[C@H]1CO` (stereo partly specified), for which the concentration for a half-maximal effect (EC50) in the series with Dengue virus [6] was 0.075 µM; in series [3], 3.3 µM; with West Nile virus, 3.5 µM. Further, the EC90 in the series on Dengue virus [6] is 0.6 µM; in series [3], 14.3 µM; in the series on West Nile virus, 33 µM. The selectivity ratio in [4] was greater than 151. The figures for the CC50 in series [7], in series [8] and in series [5] were 70 µM, 65 µM and greater than 500 µM, respectively.
On to `CC(C)[C@@H]1CC[C@@H](C)CC1OCCCCCCN1C[C@H](O)[C@@H](O)[C@H](O)[C@H]1CO` (stereo partly specified), for which the EC50 in the series on Dengue virus [6] stood at 0.1 µM; in series [3] it was 1.6 µM; in the series on West Nile virus, 4.75 µM. In addition, the EC90 with Dengue virus [6] amounted to 0.2 µM; in series [3], 14.8 µM; in the series on West Nile virus it was 19 µM. Moreover, the selectivity ratio in [4] was found to be 146. For the same compound, the CC50 in series [7] was found to be 70 µM; in series [8] it was 80 µM; in series [5], 235 µM.
Take `CC1CCC(OCCCCCCN2C[C@H](O)[C@@H](O)[C@H](O)[C@H]2CO)CC1` (stereo partly specified): the EC50 with Dengue virus [6] amounted to 6.75 µM; in series [3], 7.1 µM. Also, the EC90 in the series on Dengue virus [6] was determined as 13 µM; in series [3] it was 53 µM. Also, the inhibition at 100 µM worked out at 73% in series [11], 40% in series [17], 40% in series [18] and 89% in series [21]. In addition, the inhibition entry with MDBK [22] was “Active”. In addition, the inhibition at 80 µM in [12] was determined as 40%; in series [15] it was 73%; in series [16] it was 89%; in [19], 40%. For the same compound, the inhibition result with MDBK [13] and with MDBK [14] was “inactive” in each case. Moreover, the selectivity ratio in [4] is greater than 70. For the same compound, the results for the CC50 in series [8] and in series [5] were greater than 40 µM and greater than 500 µM, respectively.
For the compound `CCC(O)(CC)CCCCCN1C[C@H](O)[C@@H](O)[C@H](O)[C@H]1CO`, in series [3], the EC50 came out at 22 µM and the EC90 was greater than 100 µM. The selectivity ratio in series [4] is greater than 23. The compound also came in with a CC50 in series [5] greater than 500 µM.
Taken in the same sequence, the figures for `OC[C@@H]1[C@@H](O)[C@H](O)[C@@H](O)CN1CCCCCCC1(O)CCCCC1` were 18 µM, 82.5 µM, greater than 28 and greater than 500 µM.
